This is an account of results in publication PMC3320663 (Chemmedchem, 2011).

This assay has as its target T1, TbTryS (Trypanosoma brucei, UniProt Q586P2).
T1 sequence (Q586P2 1-627): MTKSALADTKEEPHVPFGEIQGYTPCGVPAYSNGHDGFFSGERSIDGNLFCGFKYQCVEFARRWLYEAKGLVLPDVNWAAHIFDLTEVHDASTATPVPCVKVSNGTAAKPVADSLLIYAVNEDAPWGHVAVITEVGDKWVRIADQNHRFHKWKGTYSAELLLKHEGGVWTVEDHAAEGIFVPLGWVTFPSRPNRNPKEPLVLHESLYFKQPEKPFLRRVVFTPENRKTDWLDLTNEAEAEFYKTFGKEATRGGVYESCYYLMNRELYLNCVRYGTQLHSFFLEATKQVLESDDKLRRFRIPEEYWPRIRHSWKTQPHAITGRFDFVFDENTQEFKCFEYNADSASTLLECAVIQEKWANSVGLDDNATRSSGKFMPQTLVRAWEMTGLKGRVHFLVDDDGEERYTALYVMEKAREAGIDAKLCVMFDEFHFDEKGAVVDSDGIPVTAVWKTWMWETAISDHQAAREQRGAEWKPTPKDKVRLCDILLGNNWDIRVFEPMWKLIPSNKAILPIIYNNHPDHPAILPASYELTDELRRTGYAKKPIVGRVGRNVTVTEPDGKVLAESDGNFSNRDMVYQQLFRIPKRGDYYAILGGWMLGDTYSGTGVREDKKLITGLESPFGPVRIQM
Description: Trypanothione synthetase. Type of assay: biochemical. The settings on record: for LE (ligand efficiency): calculated as −0.6×ln(IC50)/(heavy atom count).

Where two headings read alike, the source gives them in different places.

As for “3-(tert-Butylsulfonylmethyl)-1-(3-fluorophenyl)-1H-indazole [Compound 73]”, the “LE (ligand efficiency)” value is 0.41. For the setting “read-out: TbTryS IC50”, the IC50 was 0.08 µM.

In turn, `CC(C)(C)S(=O)(=O)Cc1nc(-c2ccccc2)cs1` [Compound 3, 2-((tert-Butylsulfonyl)methyl)-4-(phenyl)thiazole] registered an IC50 (TbTryS IC50) of 1.2 µM. Where the note is “TbTryS IC50”, `Cc1ccccc1-c1csc(CS(=O)(=O)C(C)(C)C)n1` [Compound 4, 2-((tert-Butylsulfonyl)methyl)-4-(2-methylphenyl)thiazole] had an IC50 of 3.2 µM. Turning to `CC(C)(C)S(=O)(=O)Cc1nc(-c2ccccc2F)cs1` [Compound 5, 2-((tert-Butylsulfonyl)methyl)-4-(2-fluorophenyl)thiazole], where the note is “TbTryS IC50”, the IC50 was determined as 1.1 µM. `COc1cccc(-c2csc(CS(=O)(=O)C(C)(C)C)n2)c1` [Compound 6, 2-((tert-Butylsulfonyl)methyl)-4-(3-methoxyphenyl)thiazole]: the “loss in potency relative to unsubstituted compound 3” value is given as 10 fold. This compound returned an IC50 (TbTryS IC50) of 12 µM.

Regarding `CC(C)(C)S(=O)(=O)Cc1nc(-c2cccc(C(F)(F)F)c2)cs1` [Compound 7, 2-(tert-Butylsulfonylmethyl)-4-(3-trifluoromethylphenyl)thiazole], it took 1.1 µM to reach half-maximal inhibition (TbTryS IC50) (IC50). For the setting “TbTryS IC50”, `CC(C)(C)S(=O)(=O)Cc1nc(-c2cccc(F)c2)cs1` [Compound 9, 2-(tert-Butylsulfonylmethyl)-4-(3-fluorophenyl)thiazole] registered an IC50 of 0.4 µM. For `CC(C)(C)C(=O)Cn1nnc(-c2ccccc2)n1` [Compound 14, 3,3-Dimethyl-1-(5-phenyl-2H-tetrazol-2-yl)butan-2-one], the “LE (ligand efficiency)” value is given as 0.39. Moreover, where the note is “TbTryS IC50”, the IC50 turned out to be 8.8 µM. As to `CC(C)(C)C(=O)Cn1nnc(-c2cccc(F)c2)n1` [Compound 17, 1-(5-(3-Fluorophenyl)-2H-tetrazol-2-yl)-3,3-dimethylbutan-2-one], the IC50 (TbTryS IC50) came out at 1.5 µM.

Compound `CC(C)(C)C(=O)Cn1nnc(-c2cc(F)cc(F)c2)n1` [Compound 19, 1-(5-(3,5-Difluorophenyl)-2H-tetrazol-2-yl)-3,3-dimethylbutan-2-one] had an IC50 (TbTryS IC50) of 1.9 µM.

`CC(C)(C)C(=O)Cn1nnc(-c2cc(Cl)cc(Cl)c2)n1` [Compound 20, 1-(5-(3,5-Dichlorophenyl)-2H-tetrazol-2-yl)-3,3-dimethylbutan-2-one]: the “gain in potency relative to unsubstituted scaffold 14” value is 25 fold and the “LE (ligand efficiency)” value was 0.45. For the setting “TbTryS IC50”, the IC50 was 0.3 µM. The compound `CC(=O)Cn1nnc(-c2cc(Cl)cc(Cl)c2)n1` [Compound 21, 1-(5-(3,5-Dichlorophenyl)-2H-tetrazol-2-yl)propan-2-one] came in with an IC50 (TbTryS IC50) of 6.5 µM. `CCC(=O)Cn1nnc(-c2cc(Cl)cc(Cl)c2)n1` [Compound 22, 1-(5-(3,5-Dichlorophenyl)-2H-tetrazol-2-yl)butan-2-one]: the IC50 (TbTryS IC50) turned out to be 2.7 µM. Consider `CN(C)C(=O)Cn1nnc(-c2cc(Cl)cc(Cl)c2)n1` [Compound 23, 2-(5-(3,5-Dichlorophenyl)-2H-tetrazol-2-yl)-N,N-dimethylacetamide], for which it took 0.6 µM to reach half-maximal inhibition (TbTryS IC50) (IC50). On to `O=C(Cn1nnc(-c2cc(F)cc(F)c2)n1)c1ccccc1` [Compound 24, 2-(5-(3,5-Difluorophenyl)-2H-tetrazol-2-yl)-1-phenylethanone], for which half-maximal inhibition (TbTryS IC50) (IC50) was put at 45 µM. Take `CCN(CC)C(=O)Cn1nc(C(F)(F)F)c2c1CCCC2` [Compound 35, N,N-Diethyl-2-(3-(trifluoromethyl)-4,5,6,7-tetrahydro-1H-indazol-1-yl)acetamide]: the “TbTryS activity in words” value is on record as “retained some inhibitory activity”. For the setting “TbTryS IC50”, the IC50 amounted to 15 µM. Where the note is “TbTryS IC50”, `Cc1nn(-c2ccccc2)nc1CNS(=O)(=O)C(C)(C)C` [Compound 42, 2-Methyl-N-((5-methyl-2-phenyl-2H-1,2,3-triazol-4-yl)methyl)propane-2-sulfonamide] gave an IC50 of 37 µM. For the setting “TbTryS IC50”, `CC(C)(C)C(=O)Cn1nc(-c2ccccc2)c2ccccc21` [Compound 60, 1-(3-Phenyl-1H-indazol-1-yl)-3,3-dimethylbutan-2-one] came in with an IC50 of 0.15 µM.

As usually defined, the IC50 is the concentration at which inhibition is half-maximal.
